Experimental data as given in paper PMC5993337, “De novo biosynthesis of sterols and fatty acids in the Trypanosoma brucei procyclic form: Carbon source preferences and metabolic flux redistributions” (PLoS Pathogens, 2018).

Molecular target: T1, IVDH (isovaleryl-CoA dehydrogenase), his-tagged recombinant T. brucei IVDH (Trypanosoma brucei, UniProt Q387A0)
T1 construct: gene Tb11.55.0026; lacks N-terminal 13 residues (gene positions 41 to 1234 bp), 6 His codons at 3' end, pET28, E. coli BL21(DE3) with GroEL-ES
T1 sequence (Q387A0 14-411): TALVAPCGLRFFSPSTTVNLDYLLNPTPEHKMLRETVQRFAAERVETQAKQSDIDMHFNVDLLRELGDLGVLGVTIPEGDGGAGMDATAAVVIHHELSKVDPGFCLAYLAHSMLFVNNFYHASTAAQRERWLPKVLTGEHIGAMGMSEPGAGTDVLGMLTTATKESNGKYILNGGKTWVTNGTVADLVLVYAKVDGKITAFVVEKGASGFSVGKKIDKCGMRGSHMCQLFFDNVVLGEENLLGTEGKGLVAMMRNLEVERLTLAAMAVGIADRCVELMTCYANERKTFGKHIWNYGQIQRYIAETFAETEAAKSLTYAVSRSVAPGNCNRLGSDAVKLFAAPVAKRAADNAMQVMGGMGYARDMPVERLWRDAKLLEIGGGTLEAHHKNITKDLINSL
Assay: spectrophotometric dye-reduction assay ([…],6-dichloroindophenol, […] nm)
Assay type: biochemical
Settings: isovaleryl-CoA 52.5 uM, phenazine methosulfate 1.5 mM, FAD 10 uM, 100 mM KPi pH 7.0, 25 °C

CC(C)CC(=O)SCCNC(=O)CCNC(=O)[C@H](O)C(C)(C)COP(=O)(O)OP(=O)(O)OC[C@H]1O[C@@H](n2cnc3c(N)ncnc32)[C@H](O)[C@@H]1OP(=O)(O)O [isovaleryl-CoA]
spectrophotometric dye-reduction assay (2,6-dichloroindophenol, 600 nm): specific activity of the his-tagged recombinant T. brucei IVDH purified to homogeneity for its substrate
